US20230027854A1, “ISOXAZOLE DERIVATIVES TARGETING TACC3 AS ANTICANCER AGENTS” (A2A Pharmaceuticals, inc., priority 2019, published 2023)
Read-outs that look alike come from different tables or passages of the source.

Columns and labels:
[1] = Kinetic solubility in sodium phosphate buffer; format: physicochemical; conditions: pH 7.4, 25° C., 2 h
[2] = tested on: JIMT-1 xenografts; assay: JIMT-1 xenograft tumor growth in female nude mice; format: in vivo
[3] = tested on: NCI-60 human cell lines; assay: NCI-60 five-dose screen; format: cell-based
Experimental: Detailed screening methodology can be accessed from https://dtp.cancer.gov/discovery_development/nci-60/methodology.htm webpage. Briefly, 24 h after cell seeding into 96-well plates, cells were treated with 5-log M concentration range of the compound for 2 days. Cytotoxicity was assessed using SRB assay. The data presented in the FIG.s are the average values of both experiments.

[4] = tested on: CT26; conditions: 25-50 mg/kg daily and orally
Experimental: (§1) Female nude mice and Balb/c mice were injected with human colon carcinoma cell line, HCT-116, and murine colon carcinoma cell line, CT26, respectively, into flank region of mice.
(§2) 4×10^6 HCT-116 and 1×10^6 cells were prepared either in matrigel:PBS or in PBS, respectively, and injected subcutaneously into flank region of mice. […] Mice body weight was measured regularly.

[5] = tested on: HCT-116; conditions: 25-50 mg/kg daily and orally
Experimental: as §1, §2

[6] = tested on: EMT6; conditions: 25 mg/kg every day orally
Experimental: Murine triple negative breast cancer (TNBC) cell line, EMT6, which is a fast-growing and highly aggressive model (Yang, Yang et al. 2017), was injected into MFPs of syngeneic Balb/c mice.
Six-to-eight-week-old female athymic nude or Balb/c mice were housed with a temperature-controlled and 12-hour light/12-hour dark cycle environment. This study was carried out in accordance with Institutional Animal Care and Use Committee of Bilkent University and performed according to the institution's guidelines and animal research principles. For in vivo breast cancer tumor growth in nude mice, 4×10^6 JIMT-1 cells were prepared in 150 μl of 1:1 DMEM and Matrigel (Corning, N.Y., USA), v/v) and injected into the mammary fat pads (MFP) of female nude mice. Mouse weight and tumor volume were measure daily using calipers. Tumor volumes were calculated as length×width^2×0.5. Once the tumor volume had reached about 90-100 mm^3, xenografts were randomized into groups. […] Mice were sacrificed 20-30 days after initiation of the treatments, and the tumors were collected and stored for subsequent analyses. […] 1×10^6 EMT-6 cells were prepared in PBS and injected into MFPs of mice. […] Survival was calculated using a predefined tumor volume cut-off of 1500 mm^3.

[7] = tested on: JIMT-1 cells; assay: Annexin V/PI staining; format: cell-based, human; conditions: 500 nM, 72 h; vehicle 4.1%
[8] = Experimental: Mice body weight was measured regularly, and organs were collected for determination of possible toxicity.
[9] = tested on: JIMT-1 cells; assay: Western blot of mitotic arrest, DNA damage and apoptosis markers; format: cell-based, human; conditions: 24 hours, dose response
Experimental: JIMT-1, MDA-MB-436, MDA-MB-157 and BT-474 T-DM1R cell lines were tested with respect to their response to these three drugs. […] Although higher KHS101 doses was included, which were used by others (Campo & Breuer, 2018), an induction of these markers was only observed at very high doses.

[10] = tested on: RT112 and RT4; assay: Cell viability (SRB) of FGFR3-TACC3 fusion expressing cell lines; format: cell-based, human; conditions: both models RT112 and RT4, 3 days
Experimental: KHS101 (Sigma Aldrich) and SPL-B (Axon MedChem, VA, USA) were dissolved in 100% DMSO to yield a stock concentration of 50 mM. Newly synthesized molecules were dissolved in 100% DMSO to yield a stock concentration of 10 mM. […] Cell viability was measured 72 hours after treatment with Sulforhodamine B (SRB, Sigma Aldrich) assay as recommended by the manufacturer.

[11] = Stability in human liver microsomes; format: in vitro ADME
[12] = target: CYP2CD6 (Homo sapiens, UniProt P10635); conditions: read-out: IC50 CYP2CD6; human liver microsomes
Sequence of CYP2CD6 (P10635 whole entry): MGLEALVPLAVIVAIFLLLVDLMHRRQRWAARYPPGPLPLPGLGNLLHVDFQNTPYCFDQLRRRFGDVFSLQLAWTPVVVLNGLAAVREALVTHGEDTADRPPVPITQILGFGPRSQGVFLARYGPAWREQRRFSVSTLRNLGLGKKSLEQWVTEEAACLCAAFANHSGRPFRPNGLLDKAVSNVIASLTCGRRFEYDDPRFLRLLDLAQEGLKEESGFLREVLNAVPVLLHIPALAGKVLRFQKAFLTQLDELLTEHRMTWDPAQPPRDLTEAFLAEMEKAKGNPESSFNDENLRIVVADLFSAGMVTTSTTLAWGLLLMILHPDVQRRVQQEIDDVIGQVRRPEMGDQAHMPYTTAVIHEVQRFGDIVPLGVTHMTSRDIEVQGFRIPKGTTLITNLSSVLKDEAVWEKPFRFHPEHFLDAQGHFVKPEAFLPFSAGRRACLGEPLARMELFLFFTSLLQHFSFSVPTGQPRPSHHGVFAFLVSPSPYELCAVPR

[13] = tested on: JIMT-1 cells; assay: JIMT-1 cell growth inhibition / cell viability (SRB assay); format: cell-based; conditions: Homo sapiens
Experimental: The ability of the compounds of the present disclosure to treat TACC3-mediated cancers, or associated symptoms or complications thereof, was determined using the following procedures. The compounds of the present disclosure were tested for their activity against cell death induction using a JIMT-1 cell line, which was a cell line having high level of TACC3. The concentration of each compound that was required for half-maximal inhibition of cell proliferation was calculated by a GraphPad Prism (GraphPad Software).

[14] = tested on: MCF-12A; assay: Cell viability of normal breast epithelial cells; format: cell-based, human; conditions: 5, 10 μM
Experimental: Next, the specificity of compound 5 towards cancer cell lines over normal cells were tested. […] To test the transforming potential of TACC3 and dependency of cells to TACC3 to survive, we performed a clonogenic growth assay in MCF-12A cells after overexpressing TACC3. […] To exclude the possibility that the differences we observed between cancer and normal cells are due to the differences in the proliferation rates of these cells, we calculated their doubling times.

[15] = 2 mg/kg (po. or i.v) or 5 mg/kg (po.) every two days for 30 days
[16] = 5 mg/kg oral every other day for 30 days

COc1ccc(-c2cc(Nc3ccnc(N4CCOCC4)n3)on2)cc1 [Compound 5]
solubility [1]: low solubility
body weight of mice [2, 15]: did not have any negative effect on the body weight
tumor growth rate compared with control group [2, 15]: decreased
body weight of mice [2, 16]: no major effect on the body weight
tumor growth as compared to SPL-B [2, 16]: significant reduction of tumor growth
mice weight ([2]; 25 mg/kg, po., 23 days): did not affect the mice weight
tumor growth compared to vehicle-treated mice ([2]; 25 mg/kg, po., 23 days): very significant reduction of tumor growth
tumor weights compared to vehicle group ([2]; 25 mg/kg, po., 23 days): significantly lower
share of NCI-60 cell lines with less than 1 μM GI50 value [3]: ~90%
GI50 ([3]; Homo sapiens, read-out: 50% growth inhibition (GI50) value, almost all cell lines): < 1000 nM
tolerability [4]: well tolerated
tumor growth [4]: significantly impaired tumor growth
tolerability [5]: well tolerated
tumor growth [5]: significantly impaired tumor growth
tolerability [6]: well tolerated
tumor growth inhibition [6]: significant tumor growth inhibition
increased lifespan ([6]; compared to vehicle): 57.1%
median survival ([6]; vehicle 14 days): 22 days
fraction of apoptotic cells (Annexin V/PI) [7]: 45.6%
body weight and observable toxicity ([8]; 100 mg/kg daily for 7 days): did not affect body weight
organ toxicity ([8]; 500 mg/kg once): no organ toxicity was observable
loss of body weight ([8]; 500 mg/kg once, 24 h after drug treatment): 10%
induction of mitotic arrest, DNA damage and apoptosis markers [9]: dose-dependent manner
IC50 value compared to SPL-B and KHS101 [10]: lowest IC50 value
stability in human liver microsomes [11]: low stability
IC50 [12]: 18500 nM
IC50 ([13]; JIMT-1 cells, read-out: IC50): 120 nM
IC50 ([13]; cultured cells, in-house screening on JIMT-1, read-out: IC50, suppresses cell growth): 190 nM
growth inhibition of cells at high doses [14]: did not reach to 50% growth inhibition
